Experimental data from PubChem BioAssay (NCI).
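GI50 = concentration required for 50% inhibition of growth. Definition used: TGI = concentration required for complete inhibition of growth.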

Tests used:
Assay in all cases: NCI anticancer screen, dose series, 384-well format
UO-31 renal = system: UO-31 renal
K-562 leukemia = system: K-562 leukemia
SF-295 CNS = system: SF-295 CNS
KM12 colon = system: KM12 colon
MOLT-4 leukemia = system: MOLT-4 leukemia
SNB-19 CNS = system: SNB-19 CNS
TK-10 renal = system: TK-10 renal
OVCAR-4 ovarian = system: OVCAR-4 ovarian
DU-145 prostate = system: DU-145 prostate
NCI-H322M lung = system: NCI-H322M lung
RXF 393 renal = system: RXF 393 renal
NCI/ADR-RES ovarian = system: NCI/ADR-RES ovarian
HOP-92 NSCLC = system: HOP-92 NSCLC
SN12C renal = system: SN12C renal
NCI-H23 lung = system: NCI-H23 lung
UACC-257 melanoma = system: UACC-257 melanoma
UACC-62 melanoma = system: UACC-62 melanoma
PC-3 prostate = system: PC-3 prostate
HCC-2998 colon = system: HCC-2998 colon
SNB-75 CNS = system: SNB-75 CNS
SK-MEL-28 melanoma = system: SK-MEL-28 melanoma
COLO 205 colon = system: COLO 205 colon
ACHN renal = system: ACHN renal
CAKI-1 renal = system: CAKI-1 renal
NCI-H460 NSCLC = system: NCI-H460 NSCLC
OVCAR-3 ovarian = system: OVCAR-3 ovarian
HS 578T breast = system: HS 578T breast
M14 melanoma = system: M14 melanoma
BT-549 breast = system: BT-549 breast
786-0 renal = system: 786-0 renal
HOP-62 NSCLC = system: HOP-62 NSCLC
MALME-3M melanoma = system: MALME-3M melanoma
MCF7 breast = system: MCF7 breast
SF-268 CNS = system: SF-268 CNS
SW-620 colon = system: SW-620 colon
U251 glioblastoma = system: U251 glioblastoma
MDA-MB-468 breast = system: MDA-MB-468 breast
CCRF-CEM leukemia = system: CCRF-CEM leukemia
EKVX NSCLC = system: EKVX NSCLC
SF-539 CNS = system: SF-539 CNS
SK-OV-3 ovarian = system: SK-OV-3 ovarian
OVCAR-5 ovarian = system: OVCAR-5 ovarian
A498 renal = system: A498 renal
LOX IMVI melanoma = system: LOX IMVI melanoma
HL-60(TB) leukemia = system: HL-60(TB) leukemia
OVCAR-8 ovarian = system: OVCAR-8 ovarian
A549 NSCLC = system: A549 NSCLC
MDA-MB-231 breast = system: MDA-MB-231 breast
T-47D breast = system: T-47D breast
MDA-MB-435 melanoma = system: MDA-MB-435 melanoma
SK-MEL-5 melanoma = system: SK-MEL-5 melanoma
SR leukemia = system: SR leukemia
HT29 colon = system: HT29 colon
NCI-H226 lung = system: NCI-H226 lung
IGROV1 ovarian = system: IGROV1 ovarian
HCT-15 colon = system: HCT-15 colon
NCI-H522 lung = system: NCI-H522 lung
RPMI-8226 leukemia = system: RPMI-8226 leukemia

Q: `COCCn1c2c([n+](Cc3cnccn3)c1C)C(=O)c1ccccc1C2=O` was tested. Which GI50 (UO-31 renal) did it give?
A: 377 nM

Q: What about the TGI (UO-31 renal) of the same compound?
A: 7730 nM

Q: What about the GI50 (K-562 leukemia) of the same compound?
A: < 10 nM

Q: And the TGI (K-562 leukemia)?
A: < 10 nM

Q: What about the GI50 (SF-295 CNS) of the same compound?
A: 10.4 nM

Q: And the TGI (SF-295 CNS)?
A: 22.5 nM

Q: What about the GI50 (KM12 colon) of the same compound?
A: 26 nM

Q: What about the TGI (KM12 colon) of the same compound?
A: 114 nM

Q: And the GI50 (MOLT-4 leukemia)?
A: < 10 nM

Q: What about the TGI (MOLT-4 leukemia) of the same compound?
A: < 10 nM

Q: What about the GI50 (SNB-19 CNS) of the same compound?
A: < 10 nM

Q: What about the TGI (SNB-19 CNS) of the same compound?
A: < 10 nM

Q: And the GI50 (TK-10 renal)?
A: < 10 nM

Q: And the TGI (TK-10 renal)?
A: 24 nM

Q: And the GI50 (OVCAR-4 ovarian)?
A: < 10 nM

Q: And the TGI (OVCAR-4 ovarian)?
A: < 10 nM

Q: And the GI50 (DU-145 prostate)?
A: < 10 nM

Q: What about the TGI (DU-145 prostate) of the same compound?
A: < 10 nM

Q: And the GI50 (NCI-H322M lung)?
A: < 10 nM

Q: What about the TGI (NCI-H322M lung) of the same compound?
A: 25.9 nM

Q: And the GI50 (RXF 393 renal)?
A: < 10 nM

Q: And the TGI (RXF 393 renal)?
A: 12.1 nM

Q: What about the GI50 (NCI/ADR-RES ovarian) of the same compound?
A: 18800 nM

Q: What about the TGI (NCI/ADR-RES ovarian) of the same compound?
A: > 100000 nM

Q: What about the GI50 (HOP-92 NSCLC) of the same compound?
A: < 10 nM

Q: And the TGI (HOP-92 NSCLC)?
A: < 10 nM

Q: What about the GI50 (SN12C renal) of the same compound?
A: < 10 nM

Q: What about the TGI (SN12C renal) of the same compound?
A: < 10 nM

Q: What about the GI50 (NCI-H23 lung) of the same compound?
A: < 10 nM

Q: And the TGI (NCI-H23 lung)?
A: < 10 nM

Q: And the GI50 (UACC-257 melanoma)?
A: < 10 nM

Q: What about the TGI (UACC-257 melanoma) of the same compound?
A: < 10 nM

Q: And the GI50 (UACC-62 melanoma)?
A: < 10 nM

Q: And the TGI (UACC-62 melanoma)?
A: < 10 nM

Q: And the GI50 (PC-3 prostate)?
A: < 10 nM

Q: What about the TGI (PC-3 prostate) of the same compound?
A: < 10 nM

Q: And the GI50 (HCC-2998 colon)?
A: < 10 nM

Q: What about the TGI (HCC-2998 colon) of the same compound?
A: 14.3 nM

Q: What about the GI50 (SNB-75 CNS) of the same compound?
A: < 10 nM

Q: And the TGI (SNB-75 CNS)?
A: < 10 nM

Q: What about the GI50 (SK-MEL-28 melanoma) of the same compound?
A: < 10 nM

Q: What about the TGI (SK-MEL-28 melanoma) of the same compound?
A: < 10 nM

Q: What about the GI50 (COLO 205 colon) of the same compound?
A: < 10 nM

Q: And the TGI (COLO 205 colon)?
A: 11 nM

Q: And the GI50 (ACHN renal)?
A: 17.6 nM

Q: What about the TGI (ACHN renal) of the same compound?
A: 45.7 nM

Q: What about the GI50 (CAKI-1 renal) of the same compound?
A: < 10 nM

Q: And the TGI (CAKI-1 renal)?
A: < 10 nM

Q: And the GI50 (NCI-H460 NSCLC)?
A: < 10 nM

Q: And the TGI (NCI-H460 NSCLC)?
A: 12.2 nM

Q: What about the GI50 (OVCAR-3 ovarian) of the same compound?
A: < 10 nM

Q: What about the TGI (OVCAR-3 ovarian) of the same compound?
A: < 10 nM

Q: What about the GI50 (HS 578T breast) of the same compound?
A: 19.8 nM

Q: What about the TGI (HS 578T breast) of the same compound?
A: 125 nM

Q: And the GI50 (M14 melanoma)?
A: < 10 nM

Q: And the TGI (M14 melanoma)?
A: 12 nM

Q: What about the GI50 (BT-549 breast) of the same compound?
A: < 10 nM

Q: What about the TGI (BT-549 breast) of the same compound?
A: < 10 nM

Q: What about the GI50 ([…]-0 renal) of the same compound?
A: < 10 nM

Q: What about the TGI (786-0 renal) of the same compound?
A: 13 nM

Q: What about the GI50 (HOP-62 NSCLC) of the same compound?
A: < 10 nM

Q: What about the TGI (HOP-62 NSCLC) of the same compound?
A: 15.2 nM

Q: What about the GI50 (MALME-3M melanoma) of the same compound?
A: 16.1 nM

Q: What about the TGI (MALME-3M melanoma) of the same compound?
A: 37.9 nM

Q: What about the GI50 (MCF7 breast) of the same compound?
A: < 10 nM

Q: What about the TGI (MCF7 breast) of the same compound?
A: < 10 nM

Q: And the GI50 (SF-268 CNS)?
A: < 10 nM

Q: What about the TGI (SF-268 CNS) of the same compound?
A: < 10 nM

Q: What about the GI50 (SW-620 colon) of the same compound?
A: < 10 nM

Q: And the TGI (SW-620 colon)?
A: 10.3 nM

Q: And the GI50 (U251 glioblastoma)?
A: < 10 nM

Q: What about the TGI (U251 glioblastoma) of the same compound?
A: < 10 nM

Q: And the GI50 (MDA-MB-468 breast)?
A: < 10 nM

Q: And the TGI (MDA-MB-468 breast)?
A: < 10 nM

Q: What about the GI50 (CCRF-CEM leukemia) of the same compound?
A: < 10 nM

Q: What about the TGI (CCRF-CEM leukemia) of the same compound?
A: 16.5 nM

Q: And the GI50 (EKVX NSCLC)?
A: < 10 nM

Q: What about the TGI (EKVX NSCLC) of the same compound?
A: < 10 nM

Q: What about the GI50 (SF-539 CNS) of the same compound?
A: < 10 nM

Q: And the TGI (SF-539 CNS)?
A: < 10 nM

Q: And the GI50 (SK-OV-3 ovarian)?
A: < 10 nM

Q: And the TGI (SK-OV-3 ovarian)?
A: < 10 nM

Q: And the GI50 (OVCAR-5 ovarian)?
A: < 10 nM

Q: What about the TGI (OVCAR-5 ovarian) of the same compound?
A: 16.5 nM

Q: What about the GI50 (A498 renal) of the same compound?
A: 159 nM

Q: What about the TGI (A498 renal) of the same compound?
A: 1230 nM

Q: And the GI50 (LOX IMVI melanoma)?
A: < 10 nM

Q: And the TGI (LOX IMVI melanoma)?
A: < 10 nM

Q: What about the GI50 (HL-60(TB) leukemia) of the same compound?
A: < 10 nM

Q: And the TGI (HL-60(TB) leukemia)?
A: < 10 nM

Q: What about the GI50 (OVCAR-8 ovarian) of the same compound?
A: < 10 nM

Q: And the TGI (OVCAR-8 ovarian)?
A: < 10 nM

Q: What about the GI50 (A549 NSCLC) of the same compound?
A: < 10 nM

Q: And the TGI (A549 NSCLC)?
A: 12.9 nM

Q: What about the GI50 (MDA-MB-231 breast) of the same compound?
A: < 10 nM

Q: And the TGI (MDA-MB-231 breast)?
A: < 10 nM

Q: What about the GI50 (T-47D breast) of the same compound?
A: < 10 nM

Q: And the TGI (T-47D breast)?
A: < 10 nM

Q: What about the GI50 (MDA-MB-435 melanoma) of the same compound?
A: < 10 nM

Q: What about the TGI (MDA-MB-435 melanoma) of the same compound?
A: < 10 nM

Q: What about the GI50 (SK-MEL-5 melanoma) of the same compound?
A: < 10 nM

Q: What about the TGI (SK-MEL-5 melanoma) of the same compound?
A: < 10 nM

Q: What about the GI50 (SR leukemia) of the same compound?
A: < 10 nM

Q: What about the TGI (SR leukemia) of the same compound?
A: < 10 nM

Q: And the GI50 (HT29 colon)?
A: 18 nM

Q: What about the TGI (HT29 colon) of the same compound?
A: 55.4 nM

Q: What about the GI50 (NCI-H226 lung) of the same compound?
A: 11.4 nM

Q: And the TGI (NCI-H226 lung)?
A: 40.4 nM

Q: What about the GI50 (IGROV1 ovarian) of the same compound?
A: < 10 nM

Q: What about the TGI (IGROV1 ovarian) of the same compound?
A: < 10 nM

Q: What about the GI50 (HCT-15 colon) of the same compound?
A: 40.3 nM

Q: What about the TGI (HCT-15 colon) of the same compound?
A: 735 nM

Q: And the GI50 (NCI-H522 lung)?
A: < 10 nM

Q: And the TGI (NCI-H522 lung)?
A: < 10 nM

Q: What about the GI50 (RPMI-8226 leukemia) of the same compound?
A: < 10 nM

Q: And the TGI (RPMI-8226 leukemia)?
A: < 10 nM
